According to BigSolDB 2.1:

NC(=NCCCCCCN=C(N)/N=C(\N)Nc1ccc(Cl)cc1)/N=C(\N)Nc1ccc(Cl)cc1
solubility (mole fraction)
Conditions | 283.15 K | 288.15 K | 293.15 K | 298.15 K | 303.15 K | 308.15 K | 313.15 K | 318.15 K | 323.15 K
in 1,4-dioxane | – | 0.000569 | 0.000674 | 0.000764 | 0.000888 | 0.00102 | 0.00117 | 0.00133 | 0.00153
in DMF | 0.00795 | 0.00941 | 0.0111 | 0.0131 | 0.0153 | 0.018 | 0.0206 | 0.0241 | 0.0277
in ethanol | 0.000405 | 0.000471 | 0.000539 | 0.000613 | 0.000706 | 0.000803 | 0.000914 | 0.00103 | 0.00117
in methanol | 0.000656 | 0.000751 | 0.000846 | 0.000967 | 0.00108 | 0.00123 | 0.00137 | 0.00154 | 0.00173
in water | 1.45e-06 | 2.03e-06 | 2.79e-06 | 3.84e-06 | 5.21e-06 | 7.06e-06 | 9.32e-06 | 1.23e-05 | 1.62e-05
